In paper PMC10223737, “Validation of Freshly Isolated Rat Renal Cells as a Tool for Preclinical Assessment of Radiolabeled Receptor-Specific Peptide Uptake in the Kidney” (Pharmaceuticals, 2023):
Where a SMILES comes first, the peptide text is derived from it. [ ]: non-standard residue; d: D form. The star is where a group is joined. DOTA = O=C(O)CN1CCN(CC(=O)O)CCN(CC(=O)*)CCN(CC(=O)O)CC1

Experiments:
isolated rat renal cells [1] = experiment: Active versus passive cellular accumulation in isolated rat renal cells (37 °C vs low temperature); format: in vitro ADME; details: n = 4, Figure 6; for contribution of active accumulation to cell uptake: 37 °C (= 100%) vs low incubation temperature (2–4 °C)
Source text: An experiment was arranged to test this cellular model's potential for investigating active membrane transport processes in radiopeptide renal accumulation. […] Using the same procedure as for the radiopeptides, we tested and expressed the uptake of the other studied compounds.

isolated rat renal cells [2] = experiment: Radiopeptide uptake in freshly isolated rat renal cells; details: 1 mL suspension 2.10^6/mL + 10 µL radiopeptide (1 µg/mL), 30 min, 37 °C, cells washed four times, gamma-counter
Description: Fresh rat renal cells were isolated from the kidney using the two-phase collagenase perfusion method described by Jones et al. [11]. Male Wistar rats weighing 270–330 g were used for the experiments. The rats were housed under standard conditions (tap water, standard diet, and a 12/12 h light–dark cycle). Animals were fasted for 18–24 h prior to experiments.
As a first step, rats were anesthetized (sodium pentobarbital, 50 mg/kg), the abdomen was opened, and the right renal artery and adjacent parts of the aorta were freed. Then, the right renal artery was cannulated via the aorta. Single-pass perfusion was conducted using oxygenated calcium-free Hanks’ buffer (pH 7.4) containing EGTA (0.5 mM) and Hepes (25 mM). The second perfusion phase was performed in a recirculation system with modified Hanks’ buffer containing CaCl2 (4 mM) and collagenase (0.10 % w/v) for 18–22 min. The kidneys were removed and dispersed in cold Krebs–Henseleit buffer with Hepes (25 mM) and bovine serum albumin (2% w/v). The resulting suspension was filtered and washed with Krebs–Henseleit buffer. Following centrifugation (3 min; 80 g; 4 °C), we used the trypan blue exclusion method to determine the number of cells in the suspension. […] As a result, the cell viability at the end of the 30 min incubation interval was >85%.
Standard incubations were conducted for 30 min at 37 °C using 1 mL of cell suspension containing 2.10^6/mL renal cells. The radiopeptide uptake was determined by mixing 1 mL of cell suspension and 10 µL of the radiopeptide (1 µg/mL). After incubation, the cells were washed four times and separated. The radioactivity of the cell fractions was measured as mentioned below.

rat kidneys = details: cited from earlier work; for radiopeptide uptake in rat kidneys in vivo: radioactivity in the kidneys 60 min after i.v. administration, rats
Source text: The data on radiopeptide cellular uptake were compared with already available data on radiopeptide renal retention in rats in vivo, which were previously published by our team.

LLC-PK1 cells = experiment: Cellular uptake in LLC-PK1 cells; format: in vitro ADME, porcine; details: incubation time 30 min; Figure 5
Source text: The cellular accumulation of two somatostatin receptor-specific analogs ([^111In]In -DOTA-TATE and [^111In]In -DOTA-NOC) was compared in two renal cellular models, OK cells and LLC-PK1 cells.

| Compound | contribution of active accumulation to cell uptake (isolated rat renal cells [1]) | radiopeptide uptake in isolated rat cells (In Vitro) (isolated rat renal cells [2]) | radiopeptide uptake in rat kidneys in vivo (rat kidneys) | cellular accumulation in LLC-PK1 cells compared with OK cells (LLC-PK1 cells) | also measured |
| --- | --- | --- | --- | --- | --- |
| O=C(O)C(S)C(S)C(=O)O (stereo not drawn) [[^99mTc]Tc-DMSA, dimercaptosuccinate, metal not drawn] | lowest contribution |  |  |  |  |
| CSCC[C@H](NC(=O)[C@H](Cc1c[nH]c2ccccc12)NC(=O)CNC(=O)[C@H](Cc1ccc(O)cc1)NC(=O)[C@H](C)NC(=O)[C@@H](CCC(=O)O)NC(=O)CN1CCN(CC(=O)O)CCN(CC(=O)O)CCN(CC(=O)O)CC1)C(=O)N[C@@H](CC(=O)O)C(=O)N[C@@H](Cc1ccccc1)C(N)=O [[^111In]In-DOTA-MG11, metal not drawn] ({DOTA}-[dE]AYGWMDF-NH2) |  | 0.16 ± 0.15 %D/10^6 cells | 0.84 ± 0.35 [21] %D/g |  |  |
| DTPA-DGlu-Glu-Glu-Glu-Glu-Glu-Ala-Tyr-Gly-Trp-Met-Asp-Phe-NH2 [[^111In]In-DTPA-MG0] |  |  |  |  | retention in the rat kidney in vivo (in words) (rat kidneys; rat, in vivo, iv): relatively high |
| [DOTA^0, D-Phe^1, 1-Nal^3]-octreotide (disulfide) [[^111In]In-DOTA-NOC] |  | 0.75 ± 0.09 %D/10^6 cells | 2.84 ± 0.28 [19] %D/g | significantly higher |  |
| [DOTA^0, Tyr^3, Thr^8]-octreotide [[^111In]In-DOTA-TATE] |  | 0.36 ± 0.10 %D/10^6 cells | 3.08 ± 0.42 [19] %D/g | relatively similar in both cell lines |  |
| mercaptoacetylglycylglycylglycine [[^99mTc]Tc-MAG3] | highest contribution |  |  |  | accumulation at the low incubation temperature (isolated rat renal cells [1]; 2–4 °C, active processes blocked): negligible accumulation |
